≈ marks a conversion by molar mass, not a printed value.

The record followed here is patent publication US8993574B2, “Pyrrole antifungal agents” (F2G Ltd, priority 2008, dated 2015).

Format in all cases: cell-based
In experiment [1] the test system is Aspergillus terreus AT49. Kind of experiment: MIC, YAG medium. To be noted: 24 h at 35° C, MIC banded into grades; for MIC: Aspergillus terreus, read-out: MIC grade, A. terreus 49. In outline: (§1)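 Growth inhibition was measured by absorbance at 485 nm following 24 h at 35° C. Spores harvested after 5 days on Sabouraud agar served as inoculum (1−2×10^4 cfu/mL, YAG medium). The lowest drug level producing >70% inhibition was taken as MIC.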

Experiment [2] deals with Aspergillus fumigatus AF293. Kind of experiment: MIC, YAG medium. To be noted: 24 h at 35° C, MIC banded into grades; for MIC: Aspergillus fumigatus, read-out: MIC grade, A. fumigatus. In a few lines:
as §1

Experiment [3] has as its system Aspergillus flavus. The experiment is described as follows: MIC, YAG medium. To be noted: 24 h at 35° C, MIC banded into grades; for MIC: Aspergillus flavus, 24 h, read-out: MIC grade, A. flavus. In outline:
as §1

The test system of experiment [4] is Aspergillus terreus AT4. Kind of experiment: MIC, YAG medium. As to conditions: 24 h at 35° C, MIC banded into grades; for MIC: Aspergillus terreus, read-out: MIC grade, A. terreus. In outline: as §1
Experiment [5] relates to Aspergillus niger. The experiment is described as follows: MIC, YAG medium. As to conditions: 24 h at 35° C, MIC banded into grades; for MIC: Aspergillus niger, read-out: MIC grade, A. niger. In outline: as §1
In experiment [6] the test system is Aspergillus fumigatus AF210. Kind of experiment: MIC, YAG medium. To be noted: 24 h at 35° C, MIC banded into grades; for MIC: Aspergillus fumigatus, read-out: MIC grade, A. fumigatus 210. In a few lines:
as §1

Experiment [7] deals with Candida tropicalis. Kind of experiment: MIC, RPMI medium. To be noted: 24-48 h at 35° C., >80% growth inhibition, banded into grades; for MIC: Candida tropicalis. In outline: (§2)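 Broth microdilution in RPMI medium with 2% glucose and 0.135 M MOPS (pH 7.0); compounds as doubling dilutions over 50-0.05 mg/L, inoculum 1−2×10^4 cfu/mL. Plates incubated 24-48 h at 35° C; OD 485 nm read, MIC being lowest concentration giving >80% growth inhibition versus drug-free control.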

For experiment [8], the system named is Aspergillus terreus AT49. Kind of experiment: MIC, RPMI medium. To be noted: for MIC: Aspergillus terreus, AT49, MIC banded into grades, read-out: MIC grade, A. terreus 49. In outline: as §2
Experiment [9] concerns Candida krusei. Kind of experiment: MIC, RPMI medium. To be noted: 24-48 h at 35° C., >80% growth inhibition, banded into grades; for MIC: Pichia kudriavzevii. In outline: as §2
Experiment [10] concerns Candida parapsilosis. The experiment is described as follows: MIC, RPMI medium. As to conditions: 24-48 h at 35° C., >80% growth inhibition, banded into grades; for MIC: Lodderomyces parapsilosis. In outline:
as §2

Experiment [11] concerns Aspergillus fumigatus AF293. The experiment is described as follows: MIC, RPMI medium. As to conditions: for MIC: Aspergillus fumigatus, AF293, MIC banded into grades, read-out: MIC grade, A. fumigatus. In a few lines:
as §2

The subject of experiment [12] is Candida albicans. Kind of experiment: MIC, RPMI medium. To be noted: 24-48 h at 35° C., >80% growth inhibition, banded into grades; for MIC: Candida albicans. In a few lines:
as §2

Experiment [13] has as its system Aspergillus flavus. Kind of experiment: MIC, RPMI medium. As to conditions: MIC banded into grades; for MIC: Aspergillus flavus, read-out: MIC grade, A. flavus. In outline:
as §2

The subject of experiment [14] is Candida glabrata. Kind of experiment: MIC, RPMI medium. To be noted: 24-48 h at 35° C., >80% growth inhibition, banded into grades; for MIC: Nakaseomyces glabratus. In a few lines:
as §2

Experiment [15] relates to Aspergillus terreus AT4. The experiment is described as follows: MIC, RPMI medium. As to conditions: for MIC: Aspergillus terreus, AT4, MIC banded into grades, read-out: MIC grade, A. terreus. In outline: as §2
Experiment [16] deals with Aspergillus niger. Kind of experiment: MIC, RPMI medium. As to conditions: MIC banded into grades; for MIC: Aspergillus niger, read-out: MIC grade, A. niger. In outline: as §2
In experiment [17] the test system is Aspergillus fumigatus AF210. The experiment is described as follows: MIC, RPMI medium. To be noted: for MIC: Aspergillus fumigatus, AF210, MIC banded into grades, read-out: MIC grade, A. fumigatus 210. In outline:
as §2

On to `COCCn1ccc(-c2cccc(Cl)c2)c1C(=O)C(=O)Nc1ccc(N2CCN(c3cc(C)cc(C)n3)CC2)cc1` [Example 70, 2-[3-(3-Chloro-phenyl)-1-(2-methoxy-ethyl)-1H-pyrrol-2-yl]-N-{4-[4-(4,6-dimethyl-pyridin-2-yl)-piperazin-1-yl]-phenyl}-2-oxo-acetamide], for which the MIC is less than 1 µg/mL in experiment [1]; less than 1 µg/mL in [2]; 1 to 10 µg/mL (≈ 1.75 to 17.5 µM) in [3]; less than 1 µg/mL in [4]; more than 10 µg/mL in experiment [5]; less than 1 µg/mL in [6]. The MIC was 1 to 10 µg/mL (≈ 1.75 to 17.5 µM) in experiment [7]; 1 to 10 µg/mL (≈ 1.75 to 17.5 µM) in experiment [8]; 1 to 10 µg/mL (≈ 1.75 to 17.5 µM) in [9]; less than 1 µg/mL in [10]; 1 to 10 µg/mL (≈ 1.75 to 17.5 µM) in experiment [11]; 1 to 10 µg/mL (≈ 1.75 to 17.5 µM) in [12]. Moreover, the minimum inhibitory concentration (MIC) was 1 to 10 µg/mL (≈ 1.75 to 17.5 µM) in [13]; less than 1 µg/mL in experiment [14]; 1 to 10 µg/mL (≈ 1.75 to 17.5 µM) in [15]; more than 10 µg/mL in experiment [16]; 1 to 10 µg/mL (≈ 1.75 to 17.5 µM) in experiment [17].
`Cc1cc(C)nc(N2CCN(c3ccc(NC(=O)C(=O)c4c(-c5ccccc5)cc(C)n4CCN(C)C)cc3)CC2)c1` [Example 86, 2-[1-(2-Dimethylamino-ethyl)-5-methyl-3-phenyl-1H-pyrrol-2-yl]-N-{4-[4-(4,6-dimethyl-pyridin-2-yl)-piperazin-1-yl]-phenyl}-2-oxo-acetamide]: the minimum inhibitory concentration (MIC) is more than 10 µg/mL in experiment [1]; more than 10 µg/mL in experiment [2]; 1 to 10 µg/mL (≈ 1.77 to 17.7 µM) in experiment [3]; more than 10 µg/mL in [4]; more than 10 µg/mL in [5]; more than 10 µg/mL in experiment [6]. The MIC is less than 1 µg/mL in experiment [7]; more than 10 µg/mL in experiment [8]; less than 1 µg/mL in experiment [9]; less than 1 µg/mL in experiment [10]; more than 10 µg/mL in experiment [11]; less than 1 µg/mL in experiment [12]. Further, the MIC in [13] was more than 10 µg/mL; in experiment [14], less than 1 µg/mL; in [15], more than 10 µg/mL; in experiment [16], more than 10 µg/mL; in [17] it was more than 10 µg/mL.
Regarding `COC(=O)Cn1c(C)cc(-c2ccccc2)c1C(=O)C(=O)Nc1ccc(N2CCN(c3cc(C)cc(C)n3)CC2)cc1` [Example 52, (2-{4-[4-(4,6-Dimethyl-pyridin-2-yl)-piperazin-1-yl]-phenylaminooxalyl}-5-methyl-3-phenyl-pyrrol-1-yl)-acetic acid methyl ester], the “MIC grade, A. terreus 49” value in [1] and in [8] (MIC banded into grades) was 3 (A grade of 3 represents an MIC of less than 1 mg/L) throughout. The “MIC grade, A. fumigatus” value in experiment [2] and in [11] (MIC banded into grades) was 3 (A grade of 3 represents an MIC of less than 1 mg/L) throughout. For the same compound, the “MIC grade, A. flavus” value in experiment [3] is reported as 3 (A grade of 3 represents an MIC of less than 1 mg/L); in experiment [13] it was 2 (A grade of 2 represents an MIC of from 1 to 10 mg/L). For the same compound, the “MIC grade, A. terreus” value in [4] and in experiment [15] (MIC banded into grades) was 3 (A grade of 3 represents an MIC of less than 1 mg/L) each time. The “MIC grade, A. niger” value in [5] and in experiment [16] was 3 (A grade of 3 represents an MIC of less than 1 mg/L) each time. Also, the “MIC grade, A. fumigatus 210” value in experiment [6] and in [17] (MIC banded into grades) was 3 (A grade of 3 represents an MIC of less than 1 mg/L) throughout. Moreover, the “Candida MIC, C. tropicalis” value in experiment [7] is on record as 2 (A grade of 2 represents an MIC of from 1 to 10 mg/L). In addition, the “Candida MIC, C. krusei” value in [9] was 3 (A grade of 3 represents an MIC of less than 1 mg/L). Also, in experiment [10], the “Candida MIC, C. parapsilosis” value is 2 (A grade of 2 represents an MIC of from 1 to 10 mg/L). For the same compound, in [12], the “Candida MIC, C. albicans” value is listed as 2 (A grade of 2 represents an MIC of from 1 to 10 mg/L). Moreover, in experiment [14], the “Candida MIC, C. glabrata” value is listed as 3 (A grade of 3 represents an MIC of less than 1 mg/L).

The MIC is the lowest concentration found to suppress growth.
